Kd data for 17 compounds are collected here from patent US11072625B2 (GLYCOMIMETICS, INC., priority 2016, dated 2021).

The assay has as its target T1, recombinant human E-selectin/CD63E Fc Chimera (Homo sapiens, UniProt P16581).
T1 construct: purchased R & D systems
The assay can be described thus: E-selectin activity, analysis by SPR (Biacore X100). The class given is binding. To be noted: Biacore X100, CM5 chip, E-selectin Fc chimera captured on anti-human IgG (Fc) antibody. How it is done:
Surface Plasmon Resonance (SPR) measurements were performed on a Biacore X100 instrument (GE Healthcare). A CM5 sensor chip (GE Healthcare) was used for the interaction between E-selectin and GMI compound. Anti-human IgG (Fc) antibody (GE Healthcare) was immobilized onto the chip by amine coupling according to the manufacturer's instructions. In brief, after a 7-min injection (flow rate of 5 μl/min) of 1:1 mixture of N-ethyl-N′-(3-dimethylaminopropyl) carbodiimide hydrochloride and N-hydroxysuccinimide, anti-human IgG (Fc) antibody (25 μg/ml in 10 mM sodium acetate buffer, pH 5.0) was injected using a 6-min injection at 5 μl min. Remaining activated groups were blocked by injecting 1 M ethanolamine/HCl, pH 8.5. The recombinant human E-selectin/CD63E Fc Chimera (50 μg/ml) (R & D systems) was injected into the experimental cell until 6000-7000 RU was captured onto the antibody surface. No recombinant human E-selectin/CD63E was injected into the control cell. Increasing concentrations of GMI compound samples were injected at 30 μl/min into both flow cells and all sensorgrams were recorded against the control. Regeneration of the anti-human IgG (Fc) surface was achieved by injecting 3M magnesium chloride, followed by 50 mM sodium hydroxide. Data were analyzed using Biacore X100 evaluation/BIA evaluation 4.1.1 software (GE Healthcare) and Graphad prism 6 software.

As a reminder, the Kd is the concentration at which binding is half-saturated.

T1 sequence (P16581 with tags, fused parts or gaps limits assumed): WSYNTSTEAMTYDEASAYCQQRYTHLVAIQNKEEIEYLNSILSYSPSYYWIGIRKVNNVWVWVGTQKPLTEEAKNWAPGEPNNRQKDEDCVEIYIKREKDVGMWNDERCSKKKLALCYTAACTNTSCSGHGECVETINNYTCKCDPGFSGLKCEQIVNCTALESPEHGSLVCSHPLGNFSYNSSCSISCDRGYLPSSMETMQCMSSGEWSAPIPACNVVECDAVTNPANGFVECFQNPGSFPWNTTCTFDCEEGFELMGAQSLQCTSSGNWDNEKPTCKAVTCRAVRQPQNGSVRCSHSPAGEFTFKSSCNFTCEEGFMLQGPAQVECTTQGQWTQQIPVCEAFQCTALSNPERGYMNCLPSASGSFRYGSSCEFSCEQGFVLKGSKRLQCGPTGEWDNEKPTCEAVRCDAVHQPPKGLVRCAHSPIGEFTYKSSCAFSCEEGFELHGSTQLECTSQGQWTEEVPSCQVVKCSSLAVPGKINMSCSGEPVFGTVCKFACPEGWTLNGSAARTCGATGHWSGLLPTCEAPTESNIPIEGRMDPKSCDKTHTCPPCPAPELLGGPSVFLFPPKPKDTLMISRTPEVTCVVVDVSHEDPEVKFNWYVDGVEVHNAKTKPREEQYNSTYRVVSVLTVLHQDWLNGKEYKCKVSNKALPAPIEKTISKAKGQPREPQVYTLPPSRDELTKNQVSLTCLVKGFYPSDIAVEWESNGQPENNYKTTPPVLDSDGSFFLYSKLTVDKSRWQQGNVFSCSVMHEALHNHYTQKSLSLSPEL

For `CC[C@H]1C[C@@H](C(=O)NCCNC(=O)NCCNC(=O)[C@@H]2C[C@H](CC)[C@@H](O[C@@H]3O[C@@H](C)[C@@H](O)[C@@H](O)[C@@H]3O)[C@H](O[C@@H]3O[C@H](CO)[C@H](O)[C@H](O[C@@H](CC4CCCCC4)C(=O)O)[C@H]3NC(C)=O)C2)C[C@@H](OC2O[C@H](CO)[C@H](O)[C@H](O[C@@H](CC3CCCCC3)C(=O)O)[C@H]2NC(C)=O)[C@@H]1OC1O[C@@H](C)[C@@H](O)[C@@H](O)[C@@H]1O` (some centres unmarked) [Compound 32], the Kd is 8.8 nM.

In the case of `CC[C@H]1C[C@@H](C(=O)NCCNC(=O)CCC(=O)NCCNC(=O)C2C[C@H](CC)[C@@H](O[C@@H]3O[C@@H](C)[C@@H](O)[C@@H](O)[C@@H]3O)[C@H](O[C@@H]3O[C@H](CO)[C@H](O)[C@H](O[C@@H](CC4CCCCC4)C(=O)O)[C@H]3NC(C)=O)C2)C[C@@H](OC2O[C@H](CO)[C@H](O)[C@H](O[C@@H](CC3CCCCC3)C(=O)O)[C@H]2NC(C)=O)[C@@H]1O[C@@H]1O[C@@H](C)[C@@H](O)[C@@H](O)[C@@H]1O` (some centres unmarked) [Compound 19], the Kd was 10.2 nM.

For `CC[C@H]1C[C@@H](C(=O)NCCNC(=O)c2cn(CCOCCOCCOCCn3cc(C(=O)NCCNC(=O)[C@@H]4C[C@H](CC)[C@@H](O[C@@H]5O[C@@H](C)[C@@H](O)[C@@H](O)[C@@H]5O)[C@H](O[C@@H]5O[C@H](CO)[C@H](O)[C@H](O[C@@H](CC6CCCCC6)C(=O)O)[C@H]5NC(C)=O)C4)nn3)nn2)C[C@@H](OC2O[C@H](CO)[C@H](O)[C@H](O[C@@H](CC3CCCCC3)C(=O)O)[C@H]2NC(C)=O)[C@@H]1OC1O[C@@H](C)[C@@H](O)[C@@H](O)[C@@H]1O` (some centres unmarked) [Compound 27], the Kd came out at 8.6 nM.

For `CCC1CC(C(=O)NCCNC(=O)CCOCCOCCOCCOCCOCCOCCC(=O)NCCNC(=O)C2CC(CC)C(OC3OC(C)C(O)C(O)C3O)C(OC3OC(CO)C(O)C(OC(CC4CCCCC4)C(=O)O)C3NC(C)=O)C2)CC(OC2OC(CO)C(O)C(OC(CC3CCCCC3)C(=O)O)C2NC(C)=O)C1OC1OC(C)C(O)C(O)C1O` (centres unmarked) [Compound 16], the Kd worked out at 6 nM.

As for `CCC1CC(C(=O)NCCNC(=O)CCOCCOCCOCCOCCOCCOCCOCCOCCOCCOCCOCCOCCOCCOCCOCCOCCOCCOCCOCCOCCOCCC(=O)NCCNC(=O)C2CC(CC)C(OC3OC(C)C(O)C(O)C3O)C(OC3OC(CO)C(O)C(OC(CC4CCCCC4)C(=O)O)C3NC(C)=O)C2)CC(OC2OC(CO)C(O)C(OC(CC3CCCCC3)C(=O)O)C2NC(C)=O)C1OC1OC(C)C(O)C(O)C1O` (centres unmarked) [Compound 13], the Kd stood at 4.7 nM.

As for `CCC1CC(C(=O)NCCNC(=O)CCOCCOCCOCCOCCOCCOCCOCCOCCOCCOCCC(=O)NCCNC(=O)C2CC(CC)C(OC3OC(C)C(O)C(O)C3O)C(OC3OC(CO)C(O)C(OC(CC4CCCCC4)C(=O)N4CCC4)C3NC(C)=O)C2)CC(OC2OC(CO)C(O)C(OC(CC3CCCCC3)C(=O)N3CCC3)C2NC(C)=O)C1OC1OC(C)C(O)C(O)C1O` (centres unmarked) [Compound 20], the Kd was 0.8 nM.

For the compound `CCC1CC(C(=O)NCCNC(=O)CCOCCOCCOCCOCCOCCOCCOCCOCCOCCOCCOCCOCCOCCC(=O)NCCNC(=O)C2CC(CC)C(OC3OC(C)C(O)C(O)C3O)C(OC3OC(CO)C(O)C(OC(CC4CCCCC4)C(=O)O)C3NC(C)=O)C2)CC(OC2OC(CO)C(O)C(OC(CC3CCCCC3)C(=O)O)C2NC(C)=O)C1OC1OC(C)C(O)C(O)C1O` (centres unmarked) [Compound 14], the Kd was determined as 6.6 nM.

Take `CCC1CC(C(=O)NCCNC(=O)c2cn(CCOCCOCCn3cc(C(=O)NCCNC(=O)C4CC(CC)C(OC5OC(C)C(O)C(O)C5O)C(OC5OC(CO)C(O)C(OC(CC6CCCCC6)C(=O)O)C5NC(C)=O)C4)nn3)nn2)CC(OC2OC(CO)C(O)C(OC(CC3CCCCC3)C(=O)O)C2NC(C)=O)C1OC1OC(C)C(O)C(O)C1O` (centres unmarked) [Compound 28]: the Kd amounted to 3.2 nM.

On to `CC[C@H]1C[C@@H](C(=O)NCCNC(=O)c2cn(CC(=O)NCCNC(=O)[C@@H]3C[C@H](CC)[C@@H](O[C@@H]4O[C@@H](C)[C@@H](O)[C@@H](O)[C@@H]4O)[C@H](O[C@@H]4O[C@H](CO)[C@H](O)[C@H](O[C@@H](CC5CCCCC5)C(=O)O)[C@H]4NC(C)=O)C3)nn2)C[C@@H](OC2O[C@H](CO)[C@H](O)[C@H](O[C@@H](CC3CCCCC3)C(=O)O)[C@H]2NC(C)=O)[C@@H]1OC1O[C@@H](C)[C@@H](O)[C@@H](O)[C@@H]1O` (some centres unmarked) [Compound 31], for which the Kd was determined as 3.3 nM.

Regarding `CCC1CC(C(=O)NCCNC(=O)CCOCCOCCC(=O)NCCNC(=O)C2CC(CC)C(OC3OC(C)C(O)C(O)C3O)C(OC3OC(CO)C(O)C(OC(CC4CCCCC4)C(=O)O)C3NC(C)=O)C2)CC(OC2OC(CO)C(O)C(OC(CC3CCCCC3)C(=O)O)C2NC(C)=O)C1OC1OC(C)C(O)C(O)C1O` (centres unmarked) [Compound 18], the Kd stood at 3.5 nM.

Turning to `CCC1CC(C(=O)NCCNC(=O)CCOCCOCCOCCOCCC(=O)NCCNC(=O)C2CC(CC)C(OC3OC(C)C(O)C(O)C3O)C(OC3OC(CO)C(O)C(OC(CC4CCCCC4)C(=O)O)C3NC(C)=O)C2)CC(OC2OC(CO)C(O)C(OC(CC3CCCCC3)C(=O)O)C2NC(C)=O)C1OC1OC(C)C(O)C(O)C1O` (centres unmarked) [Compound 17], the Kd amounted to 5.1 nM.

Turning to `CCC1CC(C(=O)OC)C[C@@H](O[C@@H]2O[C@@H](CO)[C@H](O)C(O[C@@H](CC3CCCCC3)C(=O)N3CCC3)C2NC(C)=O)[C@@H]1O[C@@H]1OC(C)[C@@H](O)[C@H](O)C1O` (some centres unmarked) [Compound 4], the Kd was determined as 2600 nM.

Turning to `CCC1CC(C(=O)NCCNC(=O)c2cn(CCOCCC(=O)NCCCCC(NC(=O)CCOCCn3cc(C(=O)NCCNC(=O)C4CC(CC)C(OC5OC(C)C(O)C(O)C5O)C(OC5OC(CO)C(O)C(OC(CC6CCCCC6)C(=O)O)C5NC(C)=O)C4)nn3)C(=O)OCc3ccccc3)nn2)CC(OC2OC(CO)C(O)C(OC(CC3CCCCC3)C(=O)O)C2NC(C)=O)C1OC1OC(C)C(O)C(O)C1O` (centres unmarked) [Compound 37], the Kd turned out to be 3.9 nM.

On to `CCC1CC(C(=O)NCCNC(=O)CCOCCOCCC(=O)NCCNC(=O)C2CC(CC)C(OC3OC(C)C(O)C(O)C3O)C(OC3OC(CO)C(O)C(OC(CC4CCCCC4)C(=O)N4CCC4)C3NC(C)=O)C2)CC(OC2OC(CO)C(O)C(OC(CC3CCCCC3)C(=O)N3CCC3)C2NC(C)=O)C1OC1OC(C)C(O)C(O)C1O` (centres unmarked) [Compound 25], for which the Kd amounted to 3 nM.

Take `CCC1CC(C(=O)NCCNC(=O)CCOCCOCCOCCOCCOCCOCCOCCOCCOCCOCCC(=O)NCCNC(=O)C2CC(CC)C(OC3OC(C)C(O)C(O)C3O)C(OC3OC(CO)C(O)C(OC(CC4CCCCC4)C(=O)O)C3NC(C)=O)C2)CC(OC2OC(CO)C(O)C(OC(CC3CCCCC3)C(=O)O)C2NC(C)=O)C1OC1OC(C)C(O)C(O)C1O` (centres unmarked) [Compound 15]: the Kd was found to be 6 nM.

In the case of `CC[C@H]1C[C@@H](C(=O)NCCNC(=O)NCCNC(=O)[C@@H]2C[C@H](CC)[C@@H](O[C@@H]3O[C@@H](C)[C@@H](O)[C@@H](O)[C@@H]3O)[C@H](O[C@@H]3O[C@H](CO)[C@H](O)[C@H](O[C@@H](CC4CCCCC4)C(=O)N4CCC4)[C@H]3NC(C)=O)C2)C[C@@H](OC2O[C@H](CO)[C@H](O)[C@H](O[C@@H](CC3CCCCC3)C(=O)N3CCC3)[C@H]2NC(C)=O)[C@@H]1OC1O[C@@H](C)[C@@H](O)[C@@H](O)[C@@H]1O` (some centres unmarked) [Compound 45], the Kd turned out to be 2.1 nM.

Turning to `CCC1CC(C(=O)NCCNC(=O)CCOCCOCCOCCOCCC(=O)NCCNC(=O)C2CC(CC)C(OC3OC(C)C(O)C(O)C3O)C(OC3OC(CO)C(O)C(OC(CC4CCCCC4)C(=O)N4CCC4)C3NC(C)=O)C2)CC(OC2OC(CO)C(O)C(OC(CC3CCCCC3)C(=O)N3CCC3)C2NC(C)=O)C1OC1OC(C)C(O)C(O)C1O` (centres unmarked) [Compound 23], the Kd amounted to 2.8 nM.
